# Assay results: US10420798B2, “Method for treating lung injury and/or diseases related to lung injury” (TAIWAN MITOCHONDRION APPLIED TECHNOLOGY CO., LTD, priority 2014, dated 2019)
# Experiments:
# [1] = tested on: rat model of acute respiratory distress syndrome; test: arterial oxygen saturation in rat model of acute respiratory distress syndrome; assay type: in vivo; settings: ARDS rats; melatonin 50 mg/kg i.p. at 6th and 24th hour; mitochondria 1500 μg per rat i.v. at 6th hour
# Protocol: (§1) A total of forty (40) specific pathogen free (SPF) adult male SD rats, each weighing 350-400 g (Charles River Technology, BioLASCO Biotechnology Co., Ltd., Taiwan) were used in the examples. The SD rats were randomly divided into 5 groups: the first group was the normal control group; the second group was the rat model of acute respiratory distress syndrome; the third group was the rat model of acute respiratory distress syndrome intraperitoneally injected with melatonin, with each dose of 50 mg per kilogram, at the 6th and the 24th hour after breathing pure oxygen; the fourth group was the rat model of acute respiratory distress syndrome intravenously injected mitochondria, with a dose of 1500 μg per rat, at the 6th hour after breathing pure oxygen; the fifth group was the rat model of acute respiratory distress syndrome administered melatonin and mitochondria in the same manners, frequency, and doses as those of the third group and the fourth group, respectively.
# Rats in each group in Example 5 were anesthetized. Arterial blood was taken from the carotid arteries of rats in each group, and the oxygen saturation of the blood samples was analyzed.
# The rat model of acute respiratory distress syndrome was divided into two groups. One group was given 750 μg of mitochondria per rat, and the other group was given 1500 μg of mitochondria per rat. […]
# [2] = tested on: rat model of acute respiratory distress syndrome; test: right ventricular systolic pressure in rat model of acute respiratory distress syndrome; assay type: in vivo; settings: ARDS rats; melatonin 50 mg/kg i.p. at 6th and 24th hour; mitochondria 1500 μg per rat i.v. at 6th hour
# Protocol: (§2) A total of forty (40) specific pathogen free (SPF) adult male SD rats, each weighing 350-400 g (Charles River Technology, BioLASCO Biotechnology Co., Ltd., Taiwan) were used in the examples. […]
# Then, rats in each group were provided air with positive pressure ventilation (180 ml per minute) using small animal ventilators (SAR-830/A, CWE, Inc., USA) and intubation. […] Signals of right ventricular systolic pressure were measured with a pressure transducer (UFI, model 1050, CA, USA) and transmitted to bridge amplifiers (ML866 PowerLab 4/30 Data Acquisition Systems. ADlnstruments Pty Ltd., Castle Hill, NSW, Australia) to obtain the right ventricular systolic pressure of rats in each group as a reference for pulmonary hypertension. In addition, femoral artery systolic blood pressure of rats in each group was measured. The right ventricular systolic pressure and the femoral artery systolic blood pressure were analyzed by software (Labchart, ADlnstrument). […]
# [3] = tested on: rat model of acute respiratory distress syndrome; test: albumin in BAL fluid (SDS-PAGE, Coomassie Blue); assay type: in vivo; settings: ARDS rats; doses of Example 5
# Protocol: as §1
# (§3) BAL fluid was obtained from rats in each group by bronchoalveolar lavage (BAL). SDS-PAGE and Coomassie Blue staining were used to detect the concentration of albumin in the BAL fluid of each group, and the results are shown in FIG. 11. Furthermore, the number of MPO+, CD40+, and CD11b/c+ cells in the BAL fluid of each group was calculated by flow cytometry.
# [4] = tested on: rat model of acute respiratory distress syndrome; test: MPO+, CD40+, CD11b/c+ cells in BAL fluid by flow cytometry; assay type: in vivo; settings: ARDS rats; doses of Example 5
# Protocol: as §1, §3
# [5] = tested on: rat model of acute respiratory distress syndrome; test: lung sections: immunofluorescence and transmission electron microscopy of mitochondria; assay type: in vivo; settings: compared with second group (ARDS)
# Protocol: as §1
# The left lungs of rats in each group were inflated with constant airway pressure (15-20 mmHg) and embedded with OCT (Tissue-Tek) for immunohistochemical staining. The right lungs of rats in each group were fixed with 4% paraformaldehyde and 0.1% glutaraldehyde phosphate buffer solution, then embedded in paraffin, and stained with hematoxylin and eosin. […]
# [6] = tested on: rat model of acute respiratory distress syndrome; test: lung histology (hematoxylin and eosin): alveolar sacs and crowded area; assay type: in vivo; settings: per high power field 100×; ARDS rats; doses of Example 5
# Description: as §2
# The integral of the crowded area in the lung tissue of rats in each group was further calculated by the following criteria: 0 represents no overlap; 1 represents less than 15% of crowded area in each of the high magnification fields; 2 represents 15-25% of crowded area in each of the high magnification fields; 3 represents 25-50% of crowded area in each of the high magnification fields; 4 represents 50-75% of crowded area in each of the high magnification fields; 5 represents 75-100% of crowded area in each of the high magnification fields. […]
# [7] = tested on: rat model of acute respiratory distress syndrome; test: immunostaining of lung sections for F4/80, γ-H2AX, Cx43, heme oxygenase-1; assay type: in vivo; settings: positive cells per HPF 400×; ARDS rats
# Protocol: as §1
# The paraffin sections of the lung tissue of each group were rehydrated with 3% hydrogen peroxide for 30 minutes, followed by the addition of a high-performance Immuno-Block reagent (BioSB) at room temperature for 30 minutes. The sections were then treated with the specific primary antibody of the following proteins, respectively: F4/80 (1:100, Abcam), γ-H2AX (1:500, Abcam), heme oxygenase-1 (HO-1; 1:2000, Abcam), and Cx43. Immunohistochemical staining was performed on the sections of the lung tissue of each group to observe the expression of F4/80, γ-H2AX, heme oxygenase-1, and Cx43 in cells. In addition, the expression of the proteins mentioned above in the lung tissue sections of each group was quantified, and the results are shown in FIG. 20 to FIG. 23. The red fluorescence represents the exogenous mitochondria labeled by mito-tracker, and the green fluorescent represents the mitochondria within the lungs. […]
# [8] = tested on: rat model of acute respiratory distress syndrome; test: western blotting / Oxyblot of lung parenchyma protein extracts; assay type: in vivo
# Description: (§4) The term “protein oxidation detection kit” disclosed in the present invention refers to methods for detecting protein oxidation in cells. For example, the Oxyblot Oxidized Protein Detection Kit S7150 (Chemicon) used in the examples of the present invention detects oxidized proteins by labeling oxidized proteins in a sample with 2,4-dinitrophenylhydrazine (DNPH), separating proteins in the sample with 12% SDS polyacrylamide gel electrophoresis, transferring the separated proteins onto a transfer membrane, such as a nitrocellulose membrane, immersing the transfer membrane in buffer containing anti-DNP primary antibody (1:150) for about 2 hours, then immersing the transfer membrane in buffer containing secondary antibody (1:300) at room temperature for about an hour, and then observing expression of oxidized proteins in the sample.
# as §1
# The protein extracts of the left lungs of rats in each group were prepared. The same amount (10 to 30 μg) of protein extracts of rats in each group was detected by western blotting and Oxyblot Oxidized Protein Detection Kit S7150, Chemicon, respectively. The results were observed by enhanced chemiluminescence (ECL, Amersham Biosciences), and the performance of each protein was quantified by software (Labwork software, UVP).
# Specifically, the procedure and conditions of western blotting were as follows: Proteins were separated by SDS gel electrophoresis with a gradient of 8-10% polyacrylamide solution. The blocking agent used was a T-TBS solution containing 5% skimmed milk powder and 0.05% Tween. Primary antibodies were against the following proteins respectively: NOX-1 (1:1500, Sigma), NOX-2 (1:750, Sigma), NOX-4 (1:1000, Abcam), or interacted with polyclonal antibodies that were against the following proteins: tumor necrosis factor α (1:1000, Cell Signaling), nuclear factor κB (1:250, Abcam), matrix metalloproteinase 9 (1:3000, Abcam), transforming growth factor β (1:1000, Abcam), Smad3 (1:500, Cell Signaling), bone morphogenetic protein-2 (1:100, Abcam), Smad 1/5 (1:500, Cell Signaling), GR (1:1000, Abcam), GPx (1:1000, Abcam), Cytochrome C (1:2000, BD), NQO 1 (NAD(P)H: quinone oxidoreductase 1; 1:1000, Abcam), Heme oxygenase-1 (1:250, Abcam), caspases 3 (1:1000, Cell Signaling), and PARP (poly (ADP-ribose) polymerase; 1:1000, Cell Signaling). Secondary antibodies conjugated to HRP enzymatic fluorescence are goat antibody against mouse IgG, goat antibody against rat IgG, or goat antibody against rabbit IgG.
# [9] = tested on: human umbilical vein endothelial cells; test: intracellular protein oxidation (Oxyblot) under menadione oxidative stress; assay type: cell-based; settings: after 0.5 hours and 6 hours of treatment; mitochondria after menadione vs menadione only; menadione vs untreated
# Description: as §4
# Human umbilical vein endothelial cells were divided into three groups. The human umbilical vein endothelial cells of the first group remained untreated. […] Protein oxidation in each group was detected after 0.5 hours and 6 hours of treatment with a commercially available protein oxidation assay kit (Oxyblot Oxidized Protein Detection Kit S7150, Chemicon), and oxidative stress in cells of each group was further analyzed with a software (Labwork software, UVP).
structure (smiles),measurement,setting,value
COc1ccc2[nH]cc(CCNC(C)=O)c2c1 [melatonin],oxygen saturation (group comparison),[1],significantly higher than that of the fourth group
same,right ventricular systolic pressure (group comparison),[2],significantly reduced
same,albumin concentration in BAL fluid,[3],significantly lower than those in the second group
same,"number of inflammatory cells (MPO+, CD40+, CD11b/c+) in BAL fluid",[4],significantly lower than those in the second group
same,"mitochondrial morphology in lung tissue (size, cristae; TEM)",[5],"smaller, and there are cristae in the mitochondrial inner membranes"
same,number of alveolar sacs,[6],significantly higher than that in the second group
same,expression of F4/80 in lung sections,[7],significantly lower than the fourth group
same,expression of heme oxygenase-1 in lung sections,[7],significantly higher then the second group
same,expression of γ-H2AX in lung sections,[7],significantly lower than the fourth group
same,oxidative stress (oxidized proteins),[8]; Oxyblot,significantly lower than that of the second and fourth groups
same,expression level of GPx,[8]; western blot,significantly higher than those of the second and fourth groups
same,expression level of GR,[8]; western blot,significantly higher than those of the second and fourth groups
same,expression level of Heme oxygenase-1,[8]; western blot,significantly higher than those of the second and fourth groups
same,expression level of NOX-1,[8]; western blot,significantly lower than those of the second and fourth groups
same,expression level of NOX-2,[8]; western blot,significantly lower than those of the second and fourth groups
same,expression level of NOX-4,[8]; western blot,significantly lower than those of the second and fourth groups
same,expression level of NQO 1,[8]; western blot,significantly higher than those of the second and fourth groups
same,expression level of Smad3,[8]; western blot,significantly lower than those of the second and fourth groups
same,expression level of activated PARP,[8]; western blot,significantly lower than those of the second and fourth groups
same,expression level of activated caspase-3,[8]; western blot,significantly lower than those of the second and fourth groups
same,expression level of cytochrome c (cytosol),[8]; western blot,significantly lower than those of the second and fourth groups
same,expression level of matrix metalloproteinase 9,[8]; western blot,significantly lower than those of the second and fourth groups
same,expression level of nuclear factor κB,[8]; western blot,significantly lower than those of the second and fourth groups
same,expression level of transforming growth factor β,[8]; western blot,significantly lower than those of the second and fourth groups
same,expression level of tumor necrosis factor α,[8]; western blot,significantly lower than those of the second and fourth groups
CC1=CC(=O)c2ccccc2C1=O [menadione],protein oxidation in cells,[9],increased significantly
